Measurements from US8465783B2, “Production of potassium magnesium citrate and its applications” (Gadot Biochemical Industries Ltd., priority 2008, dated 2013).

How the values were obtained:
Assay type in all cases: physicochemical
[1] = Magnesium retention in soy milk on standing (Mg content in upper layer); conditions: for Mg content: 1 liter, after addition during agitation (initial); for Mg content in upper layer: after retention of two days without agitation
Protocol: 3 g of material obtained in Example 1 were added to 1 liter of Soy milk during agitation.
3 g of material obtained in Example 2 were added to 1 liter of Soy milk during agitation.
Potassium magnesium citrate was prepared according to U.S. Pat. No. 4,985,593. 5.6 g Of the prepared material were added to 1 liter of soy milk and the samples stored refrigerated.
2.2 g of Tri magnesium citrate nona hydrate were added to 1 liter of soy milk during the agitation.
2.2 g of Tri magnesium citrate nona hydrate and 0.2 g of Kappa Carragenan were added to 1 liter of soy milk during the agitation.
2.2 g of Tri magnesium citrate nona hydrate and 2.2 g of tri potassium citrate were added to 1 liter of soy milk during the agitation.

[2] = Long-term magnesium retention in UHT-treated soy milk, stored refrigerated (Mg content in upper level)
Protocol: 120 g of material obtained in Example 1 were added to 40 liters of soy milk, after agitation the mixture passed the well known (in the art) UHT treatment and samples were collected and stored refrigerated.

[3] = Magnesium retention in cow milk on standing (Mg content in upper layer)
Protocol: 3 g of material obtained in Example 1 were added to 1 liter of cow milk during agitation.

## O=C([O-])CC(O)(CC(=O)[O-])C(=O)[O-].O=C([O-])CC(O)(CC(=O)[O-])C(=O)[O-].[K+].[K+].[K+].[K+].[Mg+2] [Potassium magnesium citrate]
[1]; 5.6 g per 1 liter
  initial concentration of Mg: 373 mg/L
[1]; stored refrigerated, after 48 hours of retention
  Mg content in the upper level: 372 mg/L

## O.O.O.O.O.O.O.O.O.O=C([O-])CC(O)(CC(=O)[O-])C(=O)[O-].O=C([O-])CC(O)(CC(=O)[O-])C(=O)[O-].[Mg+2].[Mg+2].[Mg+2] [Tri magnesium citrate nona hydrate]
[1]
  Mg content: 475 mg/L
  Mg content in upper layer: 307 mg/L
[1]; two days without agitation
  Magnesium sediment during two days: 35 percents

## Magnesium Potassium Citrate [Example 1]
[2]; after 1 week
  Mg content in the upper level: 471 mg/L
[2]; after 2 weeks
  Mg content in the upper level: 470 mg/L
[2]; after 3 weeks
  Mg content in the upper level: 471 mg/L
[2]; after 4 weeks
  Mg content in the upper level: 470 mg/L
[2]; after 5 weeks
  Mg content in the upper level: 462 mg/L
[2]; after 6 weeks
  Mg content in the upper level: 468 mg/L
[2]; after 7 weeks
  Mg content in the upper level: 470 mg/L
[2]; after 8 weeks
  Mg content in the upper level: 468 mg/L
[2]; after 9 weeks
  Mg content in the upper level: 467 mg/L
[2]; after 10 weeks
  Mg content in the upper level: 465 mg/L
[2]; after 11 weeks
  Mg content in the upper level: 471 mg/L
[2]; after 12 weeks
  Mg content in the upper level: 465 mg/L
[2]; after 13 weeks
  Mg content in the upper level: 466 mg/L
[2]; initial
  Mg content in the upper level: 468 mg/L
[1]
  Mg content: 445 mg/L
  Mg content in upper layer: 444 mg/L
[3]; 1 liter, after addition during agitation (initial)
  Mg content: 297 mg/L
[3]; after retention of two days without agitation
  Mg content in upper layer: 289 mg/L

## Magnesium Potassium Citrate [Example 2]
[1]
  Mg content: 547 mg/L
  Mg content in upper layer: 545 mg/L
